{"source": "patent US11331379B2", "about": "“Compositions and methods for regulating pancreatic beta cell function using adipsin” (Dana-Farber Cancer Institute, Inc., priority 2014, dated 2022)", "key": {"[1]": {"biological_target": "T1, C3aR1 (Mus musculus, UniProt O09047)", "T1 construct": "endogenous in cells; host or cells: db/db mice (Jackson Laboratories, Stock 000697), whole animal", "T1 sequence (O09047 1-477)": "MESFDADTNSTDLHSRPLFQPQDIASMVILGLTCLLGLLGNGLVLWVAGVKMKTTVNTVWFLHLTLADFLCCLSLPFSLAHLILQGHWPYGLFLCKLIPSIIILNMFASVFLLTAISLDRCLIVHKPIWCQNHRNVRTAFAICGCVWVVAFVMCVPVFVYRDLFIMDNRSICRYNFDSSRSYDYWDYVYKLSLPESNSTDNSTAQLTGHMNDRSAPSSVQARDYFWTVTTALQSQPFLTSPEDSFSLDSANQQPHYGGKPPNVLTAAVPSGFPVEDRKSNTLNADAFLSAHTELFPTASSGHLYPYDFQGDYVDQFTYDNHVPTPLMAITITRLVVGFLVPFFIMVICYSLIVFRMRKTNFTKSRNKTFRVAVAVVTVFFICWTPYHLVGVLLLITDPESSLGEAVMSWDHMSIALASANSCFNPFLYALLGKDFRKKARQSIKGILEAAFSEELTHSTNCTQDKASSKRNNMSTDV", "test": "C3aR1 antagonist treatment of adipsin-adenovirus-transduced db/db mice, i.p. GTT and plasma insulin", "type": "in vivo", "source_text": "Wild-type (WT) and Adipsin^−/− mice (from G. Stahl, Brigham and Women's Hospital, Boston, Mass., USA) were backcrossed 7-10 generations to C57BL/6 (B6) background. Control littermate mice from same backcrossed generations were used for experiments. B6 mice were fed a regular chow diet or a 60% kCal high fat diet (Research Diets, New Brunswick, N.J., USA) for the indicated times. db/db mice (Stock 000697) were purchased from Jackson laboratories (Bar Harbor, Me., USA). For adenoviral expression studies, mice were injected intravenously with lacZ or adipsin-expressing pAd adenoviral vectors (Life Technologies, Grand Island, N.Y., USA) and assayed 5 days later. For C3aR1 antagonist experiments, SB 290157 (N^2-[(2,2-Diphenylethoxy)acetyl]-L-arginine, TFA, Millipore, Billerica, Mass., USA) dosed at 30 mg/kg or vehicle (10% ethanol) was administered by intraperitoneally (i.p.) injections bis in die (b.i.d.) from days 3-5 after adenovirus. Mice were fasted overnight for glucose tolerance tests and given an i.p. injection of D-glucose ([…] for regular diet mice). For insulin tolerance tests, mice were fasted for 5 hours and given an i.p. injection of insulin (0.75 units/kg body weight). Blood samples were taken from the tail vein and measured with a glucometer. The mice were housed in a facility accredited by the American Association for Laboratory Animal Care. The Institutional Animal Care and Use Committee of the Beth Israel Deaconess Medical Center approved studies using animals."}, "[2]": {"system": "murine islets", "test": "static glucose-stimulated insulin secretion (GSIS) assay in isolated islets", "type": "cell-based, mouse", "conditions": "for enhancement of insulin secretion: islets from WT mice on chow diet", "protocol": "(§1) Recombinant C3a and C5a proteins (R&D Systems, Minneapolis, Minn., USA) were used at a concentration of 100 nM. Anti-adipsin antibody for Western blot analysis was from Santa Cruz Biotechnology, Santa Cruz, Calif., USA). Antibodies to C3aR1 (Santa Cruz Biotechnology), C5aR1 (Biolegend, San Diego, Calif., USA) and C5L2 (Hycult Biotechnology, Plymouth Meeting, Pa., USA) were used for flow cytometry. RNA isolation and reverse transcription were performed with TRIzol® (Life Technologies), RNeasy (Qiagen, Valencia, Calif., USA) and cDNA synthesis (Agilent Technologies, Santa Clara, Calif., USA) kits. qPCR reactions were done with SYBR green on an ABI PRISM® 7900HT real time PCR system (Life Technologies).\nIslets were isolated from pancreata of the indicated genotype with collagenase digestion as previously described (Danial et al. (2008) Nat. Med. 14:144-153). For static incubation (batch release) assays, islets were handpicked and placed into basal Krebs buffer containing 3 mM glucose followed by transfer into Krebs solution containing the indicated concentrations of glucose or secretagogues. After 45 min incubation at 37° C., the islets were pelleted and the supernatant was collected for insulin measurement. The pellet was solubilized to assess intracellular insulin content. Insulin was measured by ELISA using mouse insulin as a standard (Crystal Chem Inc., Downers Grove, Ill., USA)."}, "[3]": {"biological_target": "T1, C3aR1", "test": "GSIS assay in islets from wild-type and C3aR1-deficient mice with or without C3a", "type": "cell-based", "conditions": "WT versus C3aR1-deficient islets", "source_text": "Panels A and B show the relative expression of Adipsin (Panel A) and C3 (Panel B) in liver, quadriceps muscle (quad), islets, epididymal (epi) and inguinal (ing) fat. Samples were quantitated by qPCR. Panels C-E show the results of flow cytometry performed on islet cells with antibodies to the complement/anaphylatoxin receptors C3aR1 (Panel C), C5aR1 (Panel D), and C5L2 (Panel E). Panels F-G show the results of isolated islets from WT mice on a chow diet (Panel F) or HFD (Panel G) subjected to a GSIS assay in the presence or absence of recombinant C3a and C5a with the indicated concentrations of glucose. Panels H and I show the results of db/db mice transduced with lacZ or adipsin adenovirus ([…]) treated with vehicle or C3aR antagonist (SB 290157) at a dose of 30 mg/kg b.i.d. for 3 days and subjected to an i.p. GTT with measurements of blood glucose concentrations (Panel H) and plasma insulin levels (Panel I) at the indicated times. Statistics for GTT assays between groups: lacZ/vehicle vs. adipsin/vehicle, p=0.05; adipsin/vehicle vs. adipsin/SB 290157, p<0.01; lacZ/SB 290157 vs. adipsin/vehicle, p<0.01. […]\nIslets were isolated from pancreata of the indicated genotype with collagenase digestion as previously described (Danial et al. (2008) Nat. Med. 14:144-153). […] Insulin was measured by ELISA using mouse insulin as a standard (Crystal Chem Inc., Downers Grove, Ill., USA)."}, "[4]": {"system": "islets", "test": "cytoplasmic free Ca2+ measurement in perifused islets (Fura-2)", "type": "cell-based, mouse", "protocol": "as §1\nFor measurements of cytoplasmic free Ca^2+ concentration, islets were loaded with 2 μM Fura-2/AM (Molecular Probes, Eugene, Oreg., USA) for 60 min. in the presence or absence of C3a in a buffer containing (in mM) 125 NaCl, 5.9 KCl, 1.28 CaCl2, 1.2 MgCl2, 25 HEPES, and 3 glucose and 0.1% BSA (pH 7.4). After loading, a single islet was transferred to an open perifusion chamber maintained at 37° C. and [Ca^2+], was measured as the 340/380 nm fluorescence ratio using a Spex FluoroLog® spectrophotometer coupled to a Zeiss Axiovert 35 M microscope with a Zeiss Fluar 40×/1.30 oil objective (Carl Zeiss, Gottingen, Germany). Concentrations of 20 mM glucose and 50 mM KCl (in the presence of 3 mM glucose) were used for islet stimulation."}, "[5]": {"system": "islets", "test": "oxygen consumption rate (OCR) of islets, XF24 analyzer", "type": "cell-based, mouse", "protocol": "as §1\nReal-time measurements of mitochondrial oxygen consumption rate (OCR) were performed using the XF24 extracellular flux analyzer instrument and the AKOS algorithm built in the XF24 v1.7.0.74 software (Seahorse Bioscience, Inc., Billerica, Mass., USA). Islets were rinsed with sodium bicarbonate-free DMEM supplemented with 0.5% BSA and 3 mM glucose and 60 islets were distributed per well and recounted for OCR measurements. After baseline measurements, substrates or inhibitors of interests were added in single 50 μl injections delivered through individual injection ports. […] The respiratory rate of each islet sample was measured at 37° C. and analyzed using the Seahorse XF24 v1.5.0.69 software."}}, "data": [{"molecule": "N=C(N)NCCC[C@H](NC(=O)COCC(c1ccccc1)c1ccccc1)C(=O)O.O=C(O)C(F)(F)F", "note": "[SB 290157, N^2-[(2,2-Diphenylethoxy)acetyl]-L-arginine, TFA]", "values": [{"measurement": "improvements in insulin secretion conferred by the adipsin adenovirus", "setting": "[1]; db/db mice with adipsin adenovirus, antagonist 30 mg/kg i.p. b.i.d. for 3 days", "value": "nearly completely reversed"}, {"measurement": "improvements in glucose tolerance conferred by the adipsin adenovirus", "setting": "[1]; db/db mice with adipsin adenovirus, antagonist 30 mg/kg i.p. b.i.d. for 3 days, i.p. GTT", "value": "nearly completely reversed"}, {"measurement": "insulin induction from time 0 to 20 minutes", "setting": "[1]; db/db mice, adipsin adenovirus plus SB 290157 30 mg/kg b.i.d. 3 days, i.p. glucose challenge", "value": 1.4, "unit": "fold"}]}, {"molecule": "C3a: Recombinant C3a protein (R&D Systems); complement peptide, direct product of C3 convertase generated by adipsin", "values": [{"measurement": "insulin secretion in conjunction with tolbutamide", "setting": "[2]; 0.25 mM tolbutamide, C3a 100 nM", "value": "further stimulated insulin secretion"}, {"measurement": "insulin secretion in conjunction with KCl", "setting": "[2]; 30 mM KCl, C3a 100 nM", "value": "further stimulated insulin secretion"}, {"measurement": "enhancement of insulin secretion", "setting": "[2]; high glucose, 100 nM, acute", "value": "30-40%"}, {"measurement": "insulin secretion in diabetic islets", "setting": "[2]; islets from diabetic mice fed a HFD, 100 nM", "value": "stimulated insulin secretion"}, {"measurement": "enhancement of insulin secretion", "setting": "[2]; low glucose, 100 nM", "value": "not low"}, {"measurement": "C3a-mediated potentiation of glucose-stimulated insulin secretion", "setting": "[3]", "value": "C3aR1 is required"}, {"measurement": "basal levels of [Ca2+]i", "setting": "[4]; 3 mM glucose, C3a-treated versus control islets", "value": "similar"}, {"measurement": "[Ca2+]i in response to glucose and KCl", "setting": "[4]; 20 mM glucose and KCl stimulation", "value": "potently augmented"}, {"measurement": "response times of [Ca2+]i", "setting": "[4]; C3a-treated versus non-treated islets", "value": "similar"}, {"measurement": "increase of [Ca2+]i area under the curve", "setting": "[4]; KCl stimulation", "value": "~100", "unit": "%"}, {"measurement": "increase of peak [Ca2+]i", "setting": "[4]; KCl stimulation", "value": "~100", "unit": "%"}, {"measurement": "increase of [Ca2+]i area under the curve", "setting": "[4]; glucose stimulation (20 mM)", "value": "~50", "unit": "%"}, {"measurement": "increase of peak [Ca2+]i", "setting": "[4]; glucose stimulation (20 mM)", "value": "~50", "unit": "%"}, {"measurement": "increases in [Ca2+]i", "setting": "[4]; isolated islets perifused with glucose or KCl in the presence of C3a", "value": "50-100%"}, {"measurement": "oxygen consumption with glucose challenge", "setting": "[5]; 20 mM glucose, acute C3a, versus control islets", "value": "increased oxygen consumption"}, {"measurement": "ATP-coupled respiration", "setting": "[5]; islets, C3a versus control", "value": "increases ATP-coupled respiration"}]}, {"molecule": "C5a: Recombinant C5a protein (R&D Systems), complement anaphylatoxin (protein, UniProt P01031 678-751, looked up, C5a anaphylatoxin) C5a anaphylatoxin: TLQKKIEEIAAKYKHSVVKKCCYDGACVNNDETCEQRAARISLGPRCIKAFTECCVVASQLRANISHKDMQLGR", "values": [{"measurement": "enhancement of insulin secretion", "setting": "[2]; C5a 100 nM, GSIS", "value": "did not show this effect"}]}]}
